Experiment [1] addresses Cannabinoid receptor 1 (Homo sapiens, UniProt P21554). It counts as functional, cell-based.
Experiment [2] has as its target T1, Amine oxidase [flavin-containing] A (Homo sapiens, UniProt P21397).
T1 sequence (P21397 whole entry): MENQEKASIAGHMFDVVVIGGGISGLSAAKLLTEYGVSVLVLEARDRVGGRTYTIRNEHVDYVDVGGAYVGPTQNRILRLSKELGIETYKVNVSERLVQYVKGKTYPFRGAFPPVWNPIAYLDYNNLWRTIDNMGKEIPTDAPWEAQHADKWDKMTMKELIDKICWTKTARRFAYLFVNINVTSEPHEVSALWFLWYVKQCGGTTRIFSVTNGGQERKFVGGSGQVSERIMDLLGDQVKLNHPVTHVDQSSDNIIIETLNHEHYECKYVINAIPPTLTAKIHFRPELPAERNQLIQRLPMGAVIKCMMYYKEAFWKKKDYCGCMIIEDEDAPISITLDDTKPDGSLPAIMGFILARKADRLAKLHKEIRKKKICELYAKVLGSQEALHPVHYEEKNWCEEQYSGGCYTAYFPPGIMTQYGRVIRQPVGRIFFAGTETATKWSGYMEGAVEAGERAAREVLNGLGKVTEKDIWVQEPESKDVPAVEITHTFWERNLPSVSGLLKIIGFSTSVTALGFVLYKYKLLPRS
It counts as functional.

In experiment [3] the target is Muscarinic acetylcholine receptor M3 (Homo sapiens, UniProt P20309).
For experiment [4], the target named is Sodium-dependent dopamine transporter (Homo sapiens, UniProt Q01959).
Experiment [5] has as its target T2, 5-hydroxytryptamine receptor 2C (Homo sapiens, UniProt P28335).
T2 sequence (P28335 whole entry): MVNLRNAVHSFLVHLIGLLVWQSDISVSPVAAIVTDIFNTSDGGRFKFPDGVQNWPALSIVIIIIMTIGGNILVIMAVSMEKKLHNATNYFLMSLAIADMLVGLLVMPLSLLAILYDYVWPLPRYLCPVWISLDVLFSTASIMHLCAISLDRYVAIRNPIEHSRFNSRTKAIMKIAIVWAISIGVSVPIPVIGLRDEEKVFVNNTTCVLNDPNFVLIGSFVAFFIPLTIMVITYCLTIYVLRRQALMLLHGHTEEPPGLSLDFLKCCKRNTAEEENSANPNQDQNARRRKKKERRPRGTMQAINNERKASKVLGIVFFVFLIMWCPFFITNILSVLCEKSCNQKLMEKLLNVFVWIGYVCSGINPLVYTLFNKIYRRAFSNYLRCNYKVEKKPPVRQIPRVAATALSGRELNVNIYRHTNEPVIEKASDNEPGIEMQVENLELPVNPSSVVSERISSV

For experiment [6], the target named is Mu-type opioid receptor (Homo sapiens, UniProt P35372). Description: biochemical. In kind it is functional.
Experiment [7] deals with Beta-1 adrenergic receptor (Homo sapiens, UniProt P08588). It counts as functional.
Experiment [8] deals with Voltage-dependent L-type calcium channel subunit alpha-1C (Rattus norvegicus, UniProt P22002). In kind it is functional.
Experiment [9] addresses T3, Endothelin-1 receptor (Homo sapiens, UniProt P25101).
T3 sequence (P25101 whole entry): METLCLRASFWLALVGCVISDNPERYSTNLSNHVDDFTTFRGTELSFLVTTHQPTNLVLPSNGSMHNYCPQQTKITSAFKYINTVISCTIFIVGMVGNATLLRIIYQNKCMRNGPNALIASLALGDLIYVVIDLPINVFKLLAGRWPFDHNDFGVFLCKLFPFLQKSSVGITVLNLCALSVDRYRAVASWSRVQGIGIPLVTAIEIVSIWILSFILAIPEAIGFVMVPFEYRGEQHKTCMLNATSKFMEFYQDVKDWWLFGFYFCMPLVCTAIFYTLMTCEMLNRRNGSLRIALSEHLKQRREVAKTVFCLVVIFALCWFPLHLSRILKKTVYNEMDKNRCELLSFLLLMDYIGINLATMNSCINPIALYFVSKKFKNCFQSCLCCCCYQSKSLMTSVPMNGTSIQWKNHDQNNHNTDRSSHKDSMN

Experiment [10] addresses Neuronal acetylcholine receptor subunit alpha-4 (Homo sapiens, UniProt P43681).
Experiment [11] addresses T4, Cholecystokinin receptor type A (Homo sapiens, UniProt P32238).
T4 sequence (P32238 whole entry): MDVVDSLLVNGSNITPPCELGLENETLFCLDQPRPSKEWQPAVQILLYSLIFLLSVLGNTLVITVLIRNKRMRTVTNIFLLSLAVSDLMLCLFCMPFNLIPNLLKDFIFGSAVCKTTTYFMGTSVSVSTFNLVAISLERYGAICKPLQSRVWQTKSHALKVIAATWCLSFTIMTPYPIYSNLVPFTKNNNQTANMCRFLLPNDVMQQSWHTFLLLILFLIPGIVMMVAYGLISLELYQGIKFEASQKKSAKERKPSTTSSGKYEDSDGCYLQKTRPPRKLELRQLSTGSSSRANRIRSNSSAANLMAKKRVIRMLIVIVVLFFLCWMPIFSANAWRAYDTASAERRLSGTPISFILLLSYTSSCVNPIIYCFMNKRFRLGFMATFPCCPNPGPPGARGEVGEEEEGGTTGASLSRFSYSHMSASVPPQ

Chain of Beta-1 adrenergic receptor (P08588 whole entry): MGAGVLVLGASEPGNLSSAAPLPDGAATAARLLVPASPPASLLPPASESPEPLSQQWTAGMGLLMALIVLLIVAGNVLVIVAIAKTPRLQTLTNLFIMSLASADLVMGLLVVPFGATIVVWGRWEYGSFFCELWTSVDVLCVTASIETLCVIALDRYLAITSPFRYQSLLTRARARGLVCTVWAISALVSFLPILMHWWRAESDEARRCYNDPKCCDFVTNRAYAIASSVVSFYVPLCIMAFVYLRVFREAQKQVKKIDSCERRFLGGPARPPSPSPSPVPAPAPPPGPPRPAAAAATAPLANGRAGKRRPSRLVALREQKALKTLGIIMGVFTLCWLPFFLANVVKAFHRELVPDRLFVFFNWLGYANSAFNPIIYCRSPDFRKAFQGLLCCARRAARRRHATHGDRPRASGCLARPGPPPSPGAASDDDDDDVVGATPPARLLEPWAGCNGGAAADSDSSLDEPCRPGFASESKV
Chain of Cannabinoid receptor 1 (P21554 whole entry): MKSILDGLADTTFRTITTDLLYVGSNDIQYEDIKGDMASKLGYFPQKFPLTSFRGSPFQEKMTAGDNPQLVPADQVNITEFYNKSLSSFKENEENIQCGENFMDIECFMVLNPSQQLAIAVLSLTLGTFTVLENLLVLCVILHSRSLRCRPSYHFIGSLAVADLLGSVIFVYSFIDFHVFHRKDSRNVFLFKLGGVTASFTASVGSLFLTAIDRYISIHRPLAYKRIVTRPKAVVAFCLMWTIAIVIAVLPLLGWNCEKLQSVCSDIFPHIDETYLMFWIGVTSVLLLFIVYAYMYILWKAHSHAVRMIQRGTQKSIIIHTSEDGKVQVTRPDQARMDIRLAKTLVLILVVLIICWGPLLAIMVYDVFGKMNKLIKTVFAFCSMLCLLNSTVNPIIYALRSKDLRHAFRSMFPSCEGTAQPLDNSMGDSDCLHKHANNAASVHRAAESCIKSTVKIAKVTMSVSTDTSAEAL
Chain of Neuronal acetylcholine receptor subunit alpha-4 (P43681 whole entry): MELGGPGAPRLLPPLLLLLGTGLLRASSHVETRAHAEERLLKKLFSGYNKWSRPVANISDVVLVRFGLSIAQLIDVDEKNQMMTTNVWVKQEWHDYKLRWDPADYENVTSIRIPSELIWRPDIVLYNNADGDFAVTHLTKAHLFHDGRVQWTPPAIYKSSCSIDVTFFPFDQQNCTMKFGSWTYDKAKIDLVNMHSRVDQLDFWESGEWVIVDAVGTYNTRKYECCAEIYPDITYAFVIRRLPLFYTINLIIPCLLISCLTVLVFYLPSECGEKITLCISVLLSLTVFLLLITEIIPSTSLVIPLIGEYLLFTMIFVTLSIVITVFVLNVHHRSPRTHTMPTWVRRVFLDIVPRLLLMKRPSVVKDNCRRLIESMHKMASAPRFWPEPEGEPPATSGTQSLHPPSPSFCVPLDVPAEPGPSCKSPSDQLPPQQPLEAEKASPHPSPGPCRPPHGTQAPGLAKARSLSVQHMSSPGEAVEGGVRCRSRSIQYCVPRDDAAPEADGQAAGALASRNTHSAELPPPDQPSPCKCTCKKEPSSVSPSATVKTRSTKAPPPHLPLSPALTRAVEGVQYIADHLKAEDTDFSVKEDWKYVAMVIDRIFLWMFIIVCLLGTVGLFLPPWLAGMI
Chain of Muscarinic acetylcholine receptor M3 (P20309 whole entry): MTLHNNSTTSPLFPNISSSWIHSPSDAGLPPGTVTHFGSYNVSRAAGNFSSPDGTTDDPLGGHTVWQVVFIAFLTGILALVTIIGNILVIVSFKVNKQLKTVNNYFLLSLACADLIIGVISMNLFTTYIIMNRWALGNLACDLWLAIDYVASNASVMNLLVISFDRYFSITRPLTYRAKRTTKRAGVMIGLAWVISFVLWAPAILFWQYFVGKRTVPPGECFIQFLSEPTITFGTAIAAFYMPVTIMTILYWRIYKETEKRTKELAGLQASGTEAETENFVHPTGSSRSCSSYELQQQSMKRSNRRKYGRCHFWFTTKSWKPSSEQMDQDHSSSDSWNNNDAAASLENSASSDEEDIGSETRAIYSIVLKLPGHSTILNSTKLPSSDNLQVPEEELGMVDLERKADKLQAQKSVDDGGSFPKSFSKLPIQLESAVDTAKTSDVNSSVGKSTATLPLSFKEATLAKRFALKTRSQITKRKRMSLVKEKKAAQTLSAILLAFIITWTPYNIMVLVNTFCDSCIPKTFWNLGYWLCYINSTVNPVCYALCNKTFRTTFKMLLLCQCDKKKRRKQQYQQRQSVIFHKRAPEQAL
Chain of Mu-type opioid receptor (P35372 whole entry): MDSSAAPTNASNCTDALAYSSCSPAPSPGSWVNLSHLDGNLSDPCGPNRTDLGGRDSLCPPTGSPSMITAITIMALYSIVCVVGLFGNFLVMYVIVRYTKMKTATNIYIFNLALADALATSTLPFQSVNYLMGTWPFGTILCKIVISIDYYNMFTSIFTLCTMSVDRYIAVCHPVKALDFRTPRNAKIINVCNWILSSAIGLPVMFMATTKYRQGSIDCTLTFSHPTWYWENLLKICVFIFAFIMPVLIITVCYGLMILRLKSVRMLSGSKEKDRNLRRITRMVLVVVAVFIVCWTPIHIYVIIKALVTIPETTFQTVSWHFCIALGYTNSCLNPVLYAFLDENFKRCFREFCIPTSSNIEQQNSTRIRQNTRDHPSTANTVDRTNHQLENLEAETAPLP
Chain of Voltage-dependent L-type calcium channel subunit alpha-1C (P22002 whole entry): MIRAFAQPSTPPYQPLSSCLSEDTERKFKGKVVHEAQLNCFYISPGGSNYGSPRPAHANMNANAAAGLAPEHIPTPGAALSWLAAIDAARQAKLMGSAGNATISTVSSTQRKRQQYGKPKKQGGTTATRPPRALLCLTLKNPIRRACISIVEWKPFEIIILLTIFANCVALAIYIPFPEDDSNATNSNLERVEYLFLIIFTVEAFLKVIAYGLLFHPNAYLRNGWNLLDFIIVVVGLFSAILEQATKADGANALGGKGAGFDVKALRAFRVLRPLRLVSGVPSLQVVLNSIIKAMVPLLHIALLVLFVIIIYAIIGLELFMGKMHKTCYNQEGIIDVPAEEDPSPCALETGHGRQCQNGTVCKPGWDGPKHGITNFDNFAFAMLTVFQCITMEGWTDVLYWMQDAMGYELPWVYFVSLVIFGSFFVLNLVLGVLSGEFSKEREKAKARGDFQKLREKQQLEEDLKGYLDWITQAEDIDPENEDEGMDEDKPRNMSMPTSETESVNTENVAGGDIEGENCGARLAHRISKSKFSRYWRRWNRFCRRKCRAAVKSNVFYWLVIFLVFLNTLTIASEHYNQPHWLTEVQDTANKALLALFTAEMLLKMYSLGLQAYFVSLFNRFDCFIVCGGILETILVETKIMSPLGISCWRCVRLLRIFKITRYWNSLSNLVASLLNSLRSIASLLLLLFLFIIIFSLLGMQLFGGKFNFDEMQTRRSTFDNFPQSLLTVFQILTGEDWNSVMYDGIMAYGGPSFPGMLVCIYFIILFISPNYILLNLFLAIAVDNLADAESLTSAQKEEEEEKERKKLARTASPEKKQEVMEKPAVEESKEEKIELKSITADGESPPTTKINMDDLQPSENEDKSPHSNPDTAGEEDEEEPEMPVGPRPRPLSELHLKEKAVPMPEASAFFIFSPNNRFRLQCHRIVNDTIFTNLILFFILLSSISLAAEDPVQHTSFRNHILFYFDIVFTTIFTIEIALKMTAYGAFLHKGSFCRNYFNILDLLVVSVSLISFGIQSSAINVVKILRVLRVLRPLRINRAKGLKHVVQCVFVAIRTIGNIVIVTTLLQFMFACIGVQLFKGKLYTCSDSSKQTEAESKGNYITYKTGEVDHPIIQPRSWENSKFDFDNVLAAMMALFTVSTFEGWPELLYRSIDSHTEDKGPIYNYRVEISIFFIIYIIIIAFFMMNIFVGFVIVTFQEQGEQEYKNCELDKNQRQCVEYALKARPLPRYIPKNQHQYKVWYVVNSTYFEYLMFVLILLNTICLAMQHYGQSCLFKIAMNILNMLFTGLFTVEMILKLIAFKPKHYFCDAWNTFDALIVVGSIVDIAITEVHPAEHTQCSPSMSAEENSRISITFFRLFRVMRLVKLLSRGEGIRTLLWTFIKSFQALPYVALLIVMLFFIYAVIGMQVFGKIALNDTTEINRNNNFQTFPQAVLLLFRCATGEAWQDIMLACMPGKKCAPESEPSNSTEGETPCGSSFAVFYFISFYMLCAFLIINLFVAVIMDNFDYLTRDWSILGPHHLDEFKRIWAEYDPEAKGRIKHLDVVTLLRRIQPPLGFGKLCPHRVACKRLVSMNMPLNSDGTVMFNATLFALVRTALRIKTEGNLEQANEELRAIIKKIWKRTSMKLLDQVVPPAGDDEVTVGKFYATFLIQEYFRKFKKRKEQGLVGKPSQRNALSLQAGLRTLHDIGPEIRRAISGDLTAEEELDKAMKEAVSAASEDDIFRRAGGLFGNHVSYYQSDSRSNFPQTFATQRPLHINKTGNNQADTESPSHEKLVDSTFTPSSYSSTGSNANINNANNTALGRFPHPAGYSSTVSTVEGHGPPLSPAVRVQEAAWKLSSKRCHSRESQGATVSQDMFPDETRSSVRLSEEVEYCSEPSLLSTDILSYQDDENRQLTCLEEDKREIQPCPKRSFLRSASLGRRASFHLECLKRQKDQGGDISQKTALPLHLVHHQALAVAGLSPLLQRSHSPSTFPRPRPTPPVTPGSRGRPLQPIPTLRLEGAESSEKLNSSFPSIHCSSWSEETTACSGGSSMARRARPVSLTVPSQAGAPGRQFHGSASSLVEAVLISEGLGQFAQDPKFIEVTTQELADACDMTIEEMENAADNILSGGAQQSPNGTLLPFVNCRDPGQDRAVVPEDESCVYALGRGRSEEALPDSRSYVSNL

Consider `O=C(C[S+]([O-])C(c1ccccc1)c1ccccc1)NO` (stereo not drawn), for which the AC50 in experiment [1] is greater than 30 µM; in experiment [2] it was greater than 30 µM; in experiment [3], greater than 30 µM; in experiment [4], 9.4 µM; in experiment [5], greater than 30 µM; in experiment [6], greater than 30 µM. The AC50 in [7], in experiment [8], in experiment [9], in experiment [10] and in [11] was greater than 30 µM each time.

With `COc1ccc2cccc(CCNC(C)=O)c2c1` [AGOMELATINE], the AC50 was greater than 30 µM in experiment [1]; greater than 10 µM in experiment [2]; greater than 10 µM in experiment [3]; greater than 10 µM in experiment [4]; greater than 30 µM in experiment [6]; greater than 10 µM in [7]. The AC50 in [8] is greater than 10 µM; in experiment [9] it was greater than 30 µM; in experiment [10] it was greater than 10 µM; in experiment [11], greater than 30 µM.

On to `CCC(C(=O)O)c1ccc(CC(C)C)cc1` (stereo not drawn) [BUTIBUFEN], for which the concentration at half-maximal activity (AC50) in experiment [1], in [2], in [3], in [4], in [5] and in [6] was greater than 30 µM in each case. Also, the AC50 in experiment [7], in experiment [8], in experiment [9], in [10] and in experiment [11] was greater than 30 µM throughout.

Take `CCOC(=O)[C@H](CCc1ccccc1)N[C@H]1CCCN2CCC[C@@H](C(=O)O)N2C1=O` [CILAZAPRIL]: the concentration at half-maximal activity (AC50) in [1], in [2], in [3], in experiment [4], in [5] and in experiment [6] was greater than 30 µM in each case. In addition, the AC50 in experiment [7], in [8], in experiment [9], in [10] and in [11] was greater than 30 µM throughout.

As to `CCOc1cc(N)c([N+](=O)[O-])cc1C(=O)NC1CCN(CC2CC=CCC2)CC1` (stereo not drawn) [CINITAPRIDE], the AC50 was greater than 30 µM in experiment [1]; greater than 30 µM in [2]; 13 µM in experiment [3]; 20 µM in [4]; greater than 30 µM in [6]; greater than 30 µM in experiment [7]. Moreover, the concentration at half-maximal activity (AC50) was greater than 30 µM in [8], greater than 30 µM in experiment [9], 15 µM in experiment [10] and greater than 30 µM in [11].

For `COC(=O)[C@H]1[C@@H](OC(=O)c2ccccc2)C[C@@H]2CC[C@H]1N2C` [COCAINE], the AC50 is greater than 30 µM in experiment [1]; 19 µM in experiment [2]; greater than 30 µM in [3]; greater than 30 µM in experiment [5]; greater than 30 µM in [6]; greater than 30 µM in [7]. Also, the AC50 in experiment [8], in experiment [9], in experiment [10] and in experiment [11] was greater than 30 µM in each case.

`CCCCCCCCCCCC[N+](C)(C)CCOc1ccccc1` [DOMIPHEN]: the AC50 in experiment [1] was 17 µM; in experiment [2], 28 µM; in experiment [3], 8.4 µM; in [4] it was 2.5 µM; in [5], 1.1 µM; in [6], greater than 30 µM. Further, the AC50 is 3.1 µM in [7]; greater than 30 µM in experiment [8]; greater than 30 µM in experiment [9]; greater than 30 µM in [10]; greater than 30 µM in experiment [11].

As to `CCCCCN(C)CCC(O)(P(=O)(O)O)P(=O)(O)O` [IBANDRONIC ACID], the AC50 in [1] is greater than 30 µM; in experiment [2], greater than 30 µM; in experiment [3], greater than 30 µM; in [4], greater than 30 µM; in [5] it was greater than 30 µM; in experiment [6], 8.5 µM. The AC50 in [7], in experiment [8], in experiment [9], in experiment [10] and in [11] was greater than 30 µM each time.

For `C1=Cc2cccc(OCC3CNCCO3)c2C1` (stereo not drawn) [INDELOXAZINE], the AC50 in [1] is greater than 30 µM; in [2], greater than 30 µM; in [3] it was greater than 30 µM; in experiment [4], 12 µM; in [5], greater than 10 µM; in experiment [6], greater than 30 µM. For the same compound, the concentration at half-maximal activity (AC50) in experiment [7], in [8], in experiment [9], in experiment [10] and in experiment [11] was greater than 30 µM throughout.

For the compound `COc1ccc(C(=O)NCc2ccc(OCCN(C)C)cc2)cc1OC` [ITOPRIDE], the AC50 in [1], in experiment [2], in experiment [3], in experiment [4], in experiment [5] and in experiment [6] was greater than 30 µM each time. Further, the AC50 in [7], in [8], in experiment [9], in [10] and in [11] was greater than 30 µM each time.

Take `O=C(O)Cc1cn(-c2ccccc2)nc1-c1ccc(Cl)cc1` [LONAZOLAC]: the half-maximal activity concentration (AC50) in experiment [1], in experiment [3], in [4], in [5], in experiment [6] and in experiment [7] was greater than 30 µM each time. The half-maximal activity concentration (AC50) in [8], in experiment [9], in [10] and in [11] was greater than 30 µM in each case.

With `C#C[C@]1(O)CC[C@H]2[C@@H]3CCC4=CCCC[C@@H]4[C@H]3CC[C@@]21C` [LYNESTRENOL], the half-maximal activity concentration (AC50) in [1] is greater than 30 µM; in experiment [2], 0.3 µM; in [3], greater than 30 µM; in [4], greater than 30 µM; in experiment [5], greater than 30 µM; in experiment [6], greater than 30 µM. In addition, the AC50 in experiment [7], in experiment [8], in [9], in [10] and in experiment [11] was greater than 30 µM in each case.

`O=C(OCCN1CCOCC1)c1cccnc1Nc1cccc(C(F)(F)F)c1` [MORNIFLUMATE]: the AC50 was greater than 30 µM in experiment [1]; greater than 30 µM in experiment [2]; greater than 30 µM in [3]; 12 µM in experiment [4]; greater than 30 µM in experiment [5]; greater than 30 µM in experiment [6]. For the same compound, the AC50 in experiment [7], in experiment [8], in experiment [9], in experiment [10] and in [11] was greater than 30 µM throughout.

In the case of `O=C1NCCN1CCN1CCC(c2cn(-c3ccc(F)cc3)c3ccc(Cl)cc23)CC1` [SERTINDOLE], the AC50 in [1] was 20 µM; in experiment [2], 22 µM; in experiment [3], 22 µM; in experiment [4] it was 1.7 µM; in [6] it was greater than 30 µM; in experiment [8], greater than 30 µM. For the same compound, the values for the AC50 in [9], in [10] and in [11] were greater than 30 µM, 17 µM and greater than 30 µM, respectively.

In general, AC50 refers to the concentration at which the activity in the assay is half-maximal.

The values above are taken from ChEMBL document CHEMBL5291721, “A preclinical secondary pharmacology resource illuminates target-adverse drug reaction associations of marketed drugs” (Nat Commun, 2023).
